≈ marks a conversion by molar mass, not a printed value. Where “and” joins values, the source holds several entries; their conditions need not be identical. Equal entries are not always repeated.
Tests used:
[1] = system: Hela cells; experiment: Cytotoxicity (growth inhibitory activity), HeLa cells; format: cell-based; conditions: for IC50: Homo sapiens
Text: (§1) Subsequently, the cytotoxicity of DHLC was examined. More specifically, the activity of DHLC to various types of cancer cells (Hela cells, HL-60 cells, MKN74 cells, NB-1 cells, T98G cells) were examined.

[2] = system: Plasmodium falciparum; conditions: reported in Non Patent Literature 1; cited from earlier work
[3] = system: HL-60 cells; experiment: Cytotoxicity (growth inhibitory activity), HL-60 cells; format: cell-based; conditions: for IC50: Homo sapiens
Text: as §1

[4] = system: T98G cells; experiment: Cytotoxicity (growth inhibitory activity), T98G cells; format: cell-based
Text: as §1

[5] = system: NB-1 cells; experiment: Cytotoxicity (growth inhibitory activity), NB-1 cells; format: cell-based; conditions: Homo sapiens, NB1
Text: as §1

[6] = system: wild-type Plasmodium falciparum (pf3D7 strain); experiment: Antimalarial activity, pLDH Malstat analysis, wild-type Plasmodium falciparum (pf3D7 strain); format: cell-based
Method: Specifically, first, a wild-type malarial parasite, Plasmodium falciparum (pf3D7 strain) was cultured in a human type-A Rh+ erythrocyte-containing solution prepared such that the hematocrit level was 3% in a hypoxic condition (O2 concentration: 5%, CO2 concentration: 5%). A culture medium used herein was a complete medium (Gibco, RPMI 1640 medium) containing 25 mM N-(2-hydroxyethyl)piperazine-N′-2-ethanesulfonic acid (HEPES), 10 […] glucose, 5 μg/mL gentamicin and 10% bovine serum albumin. Thereafter, DHLC solutions having 16 different concentrations within the range of 0.015 nM to 500 nM as shown in Table 2 were prepared using dimethyl sulfoxide (DMSO). Subsequently, to each of the wells of a 96 well microplate, 100 μl of a culture solution containing Plasmodium falciparum (pf3D7 strain) cultured in accordance with a method as mentioned above, was added, and then, 0.5 μl of a DHLC solution different in concentration was added to each well. Three sample sets were prepared in the same manner by adding 16 DHLC solutions different in concentration to wells, and then, allowed to stand still at 37° C. for 72 hours to expose Plasmodium falciparum (pf3D7 strain) to DHLC. Note that, each well contains the complete medium (RPMI medium), and the malarial parasite concentration was 0.3% and hematocrit level was 2%. Thereafter, the 96 well microplates containing samples were frozen at −80° C. overnight, and then, thawed at room temperature to hemolyze red blood cells. Lactate dehydrogenase (pLDH), which is an intracellular metabolic enzyme of malarial parasite, in the samples contained in individual wells, was stained with a Malstat reagent (Flow Inc.) in accordance with the protocol of Malstat analysis (Am. J. Trop. Med. Hyg. 48(6), 1993, pp. 739-741) known in the art and the absorbance thereof was measured at 620 nm. Based on the results, the infection rates (%) of cells with malarial parasite, at different concentrations of DHLC were calculated. Note that, a positive control used herein was a sample prepared by adding a solution prepared by diluting an existing antimalarial drug, i.e., chloroquine diphosphate, with distilled water, to wild-type Plasmodium falciparum (pf3D7 strain). A negative control used herein was a sample prepared by adding a solution prepared by diluting DMSO with distilled water, to a wild-type Plasmodium falciparum (pf3D7 strain). For measuring a background value, an erythrocyte-containing solution not infected with Plasmodium falciparum, was used.

[7] = system: MKN74 cells; experiment: Cytotoxicity (growth inhibitory activity), MKN74 cells; format: cell-based
Text: as §1

[8] = system: drug-resistant Plasmodium falciparum (K1); experiment: Antimalarial activity against chloroquine-resistant Plasmodium falciparum (K1); format: cell-based; conditions: FIG. 1

Structure (SMILES): C\C=C(/C=C(C)/C=C/C=C/C=C(\C)C(=O)[C@H]1C(=O)N[C@]2(O)CCO[C@H]12)C(=O)OC [Lucilactaene]
- IC50 [1]: 10 µg/mL (≈ 24.9 µM)
- antimalarial activity IC50 [2]: 0.063 µg/mL
- antimalarial effect relative to NG-391 [2]: about 12 times
- IC50 [3]: 7 µg/mL (≈ 17.4 µM)

Structure (SMILES): C\C=C(/C=C(C)/C=C/C=C/C=C(\C)C(=O)[C@H]1C(=O)N[C@]2(O)CCO[C@H]12)C(=O)O [Demethyl lucilactaene]
- growth inhibitory activity (IC50 value) [1]: >30 µg/mL
- growth inhibitory activity (IC50 value) [3]: >30 µg/mL

Structure (SMILES): C\C=C(/C=C(C)/C=C/C=C/C=C(\C)C(=O)C1CC(O)(CCO)NC1=O)C(=O)OC (stereo not drawn) [DHLC]
- growth inhibitory activity (IC50 value) [4]: >30 µg/mL
- IC50 ([4]; Homo sapiens): > 30 µg/mL
- IC50 [1]: 21 µg/mL (≈ 52 µM)
- IC50 [5]: 0.34 µg/mL (≈ 0.843 µM)
- pf3D7(%) infection rate of cells with malarial parasite ([6]; 0.015 nM, 72 hours): 98.9%
- pf3D7(%) infection rate of cells with malarial parasite ([6]; 0.03 nM, 72 hours): 109.8%
- pf3D7(%) infection rate of cells with malarial parasite ([6]; 0.06 nM, 72 hours): 89.4%
- pf3D7(%) infection rate of cells with malarial parasite ([6]; 0.12 nM, 72 hours): 92.9%
- pf3D7(%) infection rate of cells with malarial parasite ([6]; 0.24 nM, 72 hours): 77.2%
- pf3D7(%) infection rate of cells with malarial parasite ([6]; 0.49 nM, 72 hours): 74.1%
- pf3D7(%) infection rate of cells with malarial parasite ([6]; 0.98 nM, 72 hours): 41.7%
- pf3D7(%) infection rate of cells with malarial parasite ([6]; 1.95 nM, 72 hours): 28.2%
- pf3D7(%) infection rate of cells with malarial parasite ([6]; 3.90 nM, 72 hours): 22.9%
- pf3D7(%) infection rate of cells with malarial parasite ([6]; 7.81 nM, 72 hours): 23.7%
- pf3D7(%) infection rate of cells with malarial parasite ([6]; 15.63 nM, 72 hours): 13.3%
- pf3D7(%) infection rate of cells with malarial parasite ([6]; 31.25 nM, 72 hours): 9.6%
- pf3D7(%) infection rate of cells with malarial parasite ([6]; 62.5 nM, 72 hours): 14.3%
- pf3D7(%) infection rate of cells with malarial parasite ([6]; 125 nM, 72 hours): 10.2%
- pf3D7(%) infection rate of cells with malarial parasite ([6]; 250 nM, 72 hours): 8.5%
- pf3D7(%) infection rate of cells with malarial parasite ([6]; 500 nM, 72 hours): 13.9%
- IC50 ([6]; Plasmodium falciparum, pf3D7 strain, 72 hours, read-out: growth inhibitory activity (IC50 value)): 0.65 nM and 0.00026 µg/mL
- antimalarial activity relative to NG-391 ([6]; versus NG-391 IC50=0.75 μg/ml): ≥ 1000 times
- antimalarial activity relative to lucilactaene ([6]; versus lucilactaene IC50=0.063 μg/ml): ≥ 100 times
- growth inhibitory activity (IC50 value) [7]: >30 µg/mL
- IC50 ([7]; Homo sapiens, MKN-74): > 30 µg/mL
- IC50 [3]: 3.4 µg/mL (≈ 8.43 µM)
- antimalarial activity against drug-resistant Plasmodium falciparum (K1) [8]: as high as against wild-type Plasmodium falciparum

Structure (SMILES): C\C=C(/C=C(C)/C=C/C=C/C=C(\C)C(=O)[C@]12O[C@H]1C(O)(CCO)NC2=O)C(=O)OC (stereo partly drawn) [NG-391]
- IC50 [1]: 5.9 µg/mL (≈ 14.1 µM)
- antimalarial activity IC50 [2]: 0.75 µg/mL
- IC50 [3]: 6.6 µg/mL (≈ 15.8 µM)

Source: patent US12679805B2, “Bioactive substance exhibiting antimalarial activity, and use for same” (RIKEN, priority 2021, dated 2026)
